Experimental data: patent US20250122253A1, “REGULATING MICROTUBULE DYNAMICS AS A THERAPEUTIC TARGET FOR NERVE REPAIR” (City University of Hong Kong, priority 2023, published 2025)

How the values were obtained:
spinal neurons = details: background statement; paclitaxel in rats; cited from earlier work
tubulin = details: epothilone B: cultured rat cortical neurons; cited from earlier work
[1] = chronic exposure, high doses in animals; cited from earlier work
[2] = tested on: regenerating sensory axons of the injured sciatic nerve; experiment: Sciatic nerve pinch test after sciatic nerve crush injury; type: in vivo, mice; details: AAV2/9-Fmn2-shRNA mice; 3 days after sciatic nerve injury; LMK-235 20 mg/kg intraperitoneally 3 consecutive days
Description: Sciatic nerve crush or transection injury was performed in anesthetized adult male C57BL/6 or Fmn2^−/− mice (8-12 weeks old) as previously described. Briefly, the left sciatic nerve was exposed at mid-thigh level. For crush injury, the exposed nerve was crushed with smooth forceps (Dumont #5/45 Forceps, Fine Science Tools) at the sciatic notch for 15 seconds. For sciatic nerve transection, an epineural suture was first made at the level of external rotator muscle, just distal to the sciatic notch. The exposed nerve was then transected using a pair of ophthalmic microscissors just distal to the suture. After injury, the overlying muscle and skin were sutured using a 5-0 suture (Ethilon), and the mice were allowed to recover on a heated pad, and returned to their home cages after recovery. The surgeon was blinded to the genotypes and treatments.
For in vivo gene silencing of Fmn2 and/or Hdac5 in DRGs, AAV2/9-Fmn2-shRNA and AAV2/9-Hdac5-shRNA at a titer of 5×10^12 vg/mL (OBIO Technology) were injected into the sciatic nerve directly through a glass micropipette using a microinjector (Harvard Apparatus) two weeks before sciatic nerve crush injury. The mice were then subjected to sciatic nerve crush injury and sciatic nerve pinch test (FIG. 4) and animal behavioural assessment (FIG. 15). The expression of shRNAs was under the control of the U6 promoter, and the expression of the reporter gene eGFP was under the control of the CAG promoter. AAV2/9-scr-shRNA (Packgene) was used as a negative control (see FIG. 22 for the shRNA sequences). On a separate batch of animals, the knockdown efficiency in DRGs was assessed by Western blot analysis in AAV2-Fmn2-shRNA and AAV2-Hdac5-shRNA mice two weeks after the AAV injection (FIGS. S8B and S9). […]
Sciatic nerve pinch test was performed in the ipsilateral side 3 days after sciatic nerve crush injury. […] The distance (in mm) representing the length of axonal regrowth was recorded from the crushed site to the most distal point of sciatic nerve whereas initial withdrawal reflex was observed after pinching. […]

pHDAC5 = experiment: Western blot of pHDAC5 in sciatic nerve segments 0-6 mm distal to the crush site; type: in vivo, mice; details: AAV2/9-Fmn2-shRNA mice; 3 days after injury
Description: (§1) Ipsilateral L4/5 DRG neurons were harvested at various time points following sciatic nerve injury as indicated. Sciatic nerves were harvested 3 days after crush injury and segmented into 0-6 mm distal to the crush site. Each protein sample was pooled from 3 mice. DRG neurons and segmented sciatic nerves were mechanically dissociated with protein lysis buffer, and subjected to measurement of protein concentration using protein BCA assay (Pierce). Protein lysate (30 μg) was separated on 4-12% NuPAGE Tris-Glycine precast gel (Invitrogen). Protein was then transferred onto a PVDF membrane (Bio-Rad) and blocked with 5% non-fat milk (Bio-Rad) in TBS-T. The membrane was incubated with anti-FMN2 (1:500; ProteinTech), anti-phosphorylated HDAC5 (1:500, ThermoFisher), anti-HDAC5 (1:500, Novus Biologicals), anti-acetylated tubulin (1:10,000; Sigma-Aldrich), anti-NeuN (1:500; Millipore), anti-SOX10 (1:500; Abcam), anti-IBA-1 (1:1,000; Wako), anti-GFP (1:1,000; Cell Signaling), and anti-GAPDH antibodies (1:2,000; ProteinTech) as loading controls. The membrane was incubated with secondary antibody conjugated with horseradish peroxidase (1:2,000; Thermo-Fisher). Signals were detected using West Femto Maximum Sensitivity Substrate Kit (Thermo Scientific). […] Band intensities were measured using Image Lab software (Bio-Rad). […]

acetylated tubulin = experiment: Western blot of acetylated tubulin/total tubulin in sciatic nerve segments 0-6 mm distal to the crush site; type: in vivo, mice; details: AAV2/9-Fmn2-shRNA mice; 3 days after injury
Description: as §1

damaged axons = details: background statement; cited from earlier work

C/C(=C\c1csc(C)n1)[C@@H]1C[C@@H]2O[C@]2(C)CCC[C@H](C)[C@H](O)[C@@H](C)C(=O)C(C)(C)[C@@H](O)CC(=O)O1 [Epothilone B]
axon regeneration after spinal cord injury (spinal neurons): promoted in vivo axon regeneration
tubulin polymerization at growing tips / growth cones (tubulin): induced rapid tubulin polymerization
peripheral neuropathy [1]: cause chemotherapy-induced peripheral neuropathy

Cc1cc(C)cc(C(=O)NOCCCCCC(=O)NO)c1 [LMK-235]
effect on the axon regrowth-promoting effect in AAV2/9-Fmn2-shRNA mice [2]: completely eliminated the axon regrowth-promoting effect
reduction of pHDAC5 protein expression in AAV2/9-Fmn2-shRNA mice (pHDAC5): 70%
acetylated tubulin expression in sciatic nerves of AAV2/9-Fmn2-shRNA mice (acetylated tubulin): increased acetylated tubulin expression

CC(=O)O[C@H]1C(=O)[C@@]2(C)[C@H]([C@H](OC(=O)c3ccccc3)[C@]3(O)C[C@H](OC(=O)[C@H](O)[C@@H](NC(=O)c4ccccc4)c4ccccc4)C(C)=C1C3(C)C)[C@]1(OC(C)=O)CO[C@@H]1C[C@@H]2O [paclitaxel]
axon regeneration after spinal cord injury (spinal neurons): facilitated in vivo axon regeneration
tubulin polymerization at growing tips / growth cones (tubulin): induced active tubulin polymerization

O=C(CCCCCN1C(=O)c2cccc3cccc(c23)C1=O)NO [scriptaid]
axonal regrowth after PNI (damaged axons): markedly stalled axonal regrowth
